Results published in patent publication US20240254121A1, “ALKYLAMIDE SUBSTITUTED, ANNULATED IMIDAZOLES AND USE THEREOF AS INSECTICIDES” (Bayer Aktiengesellschaft, priority 2021, published 2024).

How the values were obtained:
Format in all cases: in vivo
[1] = test system: cotton aphid (Aphis gossypii); test: Aphis gossypii oral test; conditions: 120 h, after 5 days
Protocol: Aphis gossypii—Oral Test • Solvent: 100 Parts by Weight Acetone
(§1) To produce a suitable preparation of active compound, 1 part by weight of active compound is mixed with the stated amount of solvent, and the concentrate is diluted with water to the desired concentration.
(§2) 50 μL compound solution is filled in microtiter plates and 150 μL IPL41 insect medium (33%+15% sugar) is added to obtain a total volume of 200 μL per well. Afterwards the plates are sealed with parafilm through which a mixed population of the cotton aphid (Aphis gossypii) can suck on the compound preparation.
(§3) After 5 days mortality in % is determined. 100% means all aphids have been killed and 0% means none of the aphids have been killed.

[2] = test system: green peach aphid (Myzus persicae); test: Myzus persicae oral test; conditions: 120 h, after 5 days
Protocol: Myzus persicae—Oral Test • Solvent: 100 parts by weight acetone
as §1
as §2, with “green peach” for “cotton”, “(Myzus persicae)” for “(Aphis gossypii)”
as §3

[3] = test system: larvae of the southern green stink bug (Nezara viridula); test: Nezara viridula spray test; conditions: 96 h, barley plants, after 4 days
Protocol: Nezara viridula—Spray Test • Solvent: 78.0 parts by weight of acetone • 1.5 parts by weight of dimethylformamide • Emulsifier: alkylarylpolyglycol ether
(§4) To produce a suitable preparation of active compound, 1 part by weight of active compound is mixed with the stated amount of solvent, and the concentrate is diluted with water, containing an emulsifier concentration of 1000 ppm, to the desired concentration. Further test concentrations are prepared by dilution with emulsifier containing water.
Barley plants (Hordeum vulgare) are sprayed with a test solution containing the desired concentration of the active ingredient and are infested with larvae of the southern green stink bug (Nezara viridula).
After 4 days mortality in % is determined. 100% means all the stink bugs have been killed; 0% means none of the stink bugs have been killed.

[4] = test system: fall armyworm larvae (Spodoptera frugiperda); test: Spodoptera frugiperda spray test; conditions: 168 h, maize leaf sections, after 7 days
Protocol: Spodoptera frugiperda—Spray Test • Solvent: 78.0 parts by weight acetone • 1.5 parts by weight dimethylformamide • Emulsifier: alkylarylpolyglycol ether
as §4, with “solvents” for “solvent,”, “and” for “and the concentrate”
Maize (Zea mays) leaf sections are sprayed with a preparation of the active ingredient of the desired concentration. Once dry, the leaf sections are infested with fall armyworm larvae (Spodoptera frugiperda).
After 7 days mortality in % is determined. 100% means all caterpillars have been killed and 0% means none of the caterpillars have been killed.

[5] = test system: cattle tick larvae (Rhipicephalus microplus); test: Rhipicephalus (Boophilus) microplus in-vitro contact test, larval cattle tick (strain Parkhurst, resistant against synthetic pyrethroids); conditions: 1 μg/cm^2 (=100 g/ha), after 48 hours, read-out: efficacy (larvae dead or moribund)
Protocol: Rhipicephalus (Boophilus) Microplus—In-Vitro Contact Tests Larval Cattle Tick (Strain Parkhurst, Resistant Against Synthetic Pyrethroids)
9 mg compound is solved in 1 mL acetone and diluted with acetone to the desired concentration. 250 μL of the test solution is filled in 25 mL glass test tubes and homogeneously distributed on the inner walls by rotation and tilting on a shaking device (2 h at 30 rpm). With a compound concentration of 900 ppm, an inner surface of 44.7 cm^2 and a homogeneous distribution, a dose of 5 μg/cm^2 is achieved.
After the solvent has evaporated, each test tube is filled with 20-50 cattle tick larvae (Rhipicephalus microplus), closed with a perforated lid and incubated in a horizontal position at 85% relative humidity and 27° C. in an incubator. After 48 hours efficacy is determined. The larvae are patted on the ground of the tubes and negative geotactic behavior is recorded.
An efficacy of 100% means all larvae are dead or moribund; 0% means no larvae are dead or moribund.

[6] = test system: adult mosquitoes Aedes aegypti strain MONHEIM; test: Aedes aegypti test (AEDSAE surface treatment & contact assay); conditions: 24 hours after contact, read-out: efficacy (mortality); for mortality at 20 mg/m2: surface concentration 20 mg/m^2, 30 minutes exposure; for mortality at 4 mg/m2: surface concentration 4 mg/m^2, 30 minutes exposure
Protocol: Aedes aegypti Test (AEDSAE Surface Treatment & Contact Assay) • Solvent: Aceton+2000 ppm rapeseed oil methyl ester (RME)
(§5) In order to produce a sufficient, active ingredient containing solution it is necessary to solve the test compound in the solvent-mix (acetone at 2 mg/ml/RME 2000 ppm). This solution is pipetted onto a glazed tile and after evaporation of the acetone, adult mosquitoes of the species Aedes aegypti strain MONHEIM are placed onto the dried surface. The exposure time is 30 minutes. Mortality in percent (%) is determined 24 hours after contact of the insects to the treated surface. 100% mortality means that all tested insects are dead, whereas 0% means that no insect died.

[7] = test system: adult mosquitoes Culex quinquefasciatus strain P00; test: Culex quinquefasciatus test (CULXFA surface treatment & contact assay); conditions: 24 hours after contact, read-out: efficacy (mortality); for mortality at 4 mg/m2: surface concentration 4 mg/m^2, 30 minutes exposure
Protocol: Culex quinquefasciatus Test (CULXFA Surface Treatment & Contact Assay) • Solvent: Aceton+2000 ppm rapeseed oil methyl ester (RME)
as §5, with “2,000” for “2000”, “Culex quinquefasciatus” for “Aedes aegypti”, “P00” for “MONHEIM”

[8] = test system: larvae of the banded cucumber beetle (Diabrotica balteata); test: Diabrotica balteata spray test; conditions: 168 h, 100 g/ha (=32 μg/well), wheat seeds, after 7 days, read-out: efficacy (seedling growth)
Protocol: Diabrotica Balteata—Spray Test
• Solvent: 78.0 Parts by Weight of Acetone • 1.5 parts by weight of dimethylformamide • Emulsifier: Alkylarylpolyglycol Ether
as §4
Soaked wheat seeds (Triticum aestivum) are placed in a multiple well plate filled with agar and some water and are incubated for 1 day to germinate (5 seeds per well). The germinated wheat seeds are sprayed with a test solution containing the desired concentration of the active ingredient. Afterwards each unit is infected with 10-20 larvae of the banded cucumber beetle (Diabrotica balteata).
After 7 days efficacy in % is determined. 100% means all the seedlings have grown up like in the untreated, uninfected control; 0% means none of the seedlings have grown.

[9] = test system: adult flies Musca domestica strain WHO-N; test: Musca domestica test (MUSCDO surface treatment & contact assay); conditions: 24 hours after contact, read-out: efficacy (mortality); for mortality at 4 mg/m2: surface concentration 4 mg/m^2, 30 minutes exposure; for mortality at 20 mg/m2: surface concentration 20 mg/m^2, 30 minutes exposure
Protocol: Musca domestica Test (MUSCDO Surface Treatment & Contact Assay) • Solvent: Aceton+2000 ppm rapeseed oil methyl ester (RME)
as §5, with “flies” for “mosquitoes”, “Musca domestica” for “Aedes aegypti”, “WHO-N” for “MONHEIM”

Compound	mortality at 500 g/ha [3]	mortality at 100 g/ha [4]	pest or weed control at 32 µg/disc, 100 g/ha [8]	also measured
C[C@H](NC(=O)c1cc(Cl)cc(S(C)(=O)=O)c1)c1nc2cccnc2n1-c1ccc(C#N)cn1 [Example I-5]	100%	100%		mortality at 100 ppm [1]: 100%; mortality at 20 ppm [2]: 100%
C[C@H](NC(=O)c1cc(C#N)cc(C(C)(C)C#N)c1)c1nc2cccnc2n1-c1ccc(C#N)cn1 [Example I-7]		100%		pest or weed control at 1 µg/cm2, 100 g/ha [5]: 90%; mortality at 100 ppm [1]: 100%; mortality at 20 ppm [2]: 100%; mortality at 20 mg/m2 [6]: 80 to 100%
CC(NC(=O)c1cc(Cl)cc(S(C)(=O)=O)c1)c1nc2cccnc2n1-c1ccc(Cl)cn1 (centres unmarked) [Example I-10]	100%	100%		mortality at 100 ppm [1]: 100%; mortality at 20 ppm [2]: 100%; mortality at 4 mg/m2 [6]: 80 to 100%; mortality at 20 mg/m2 [6]: 80 to 100%; mortality at 4 mg/m2 [7]: 80 to 100%
CC(NC(=O)c1cc(OC(F)(F)F)cc(C2(C#N)CC2)c1)c1nc2cccnc2n1-c1ccc(Cl)cn1 (centres unmarked) [Example I-11]		100%	100%	pest or weed control at 1 µg/cm2, 100 g/ha [5]: 90%; mortality at 20 mg/m2 [6]: 80 to 100%; mortality at 4 mg/m2 [9]: 80 to 100%; mortality at 20 mg/m2 [9]: 80 to 100%
CC(NC(=O)c1cc(OC(F)(F)F)cc(S(C)(=O)=O)c1)c1nc2cccnc2n1-c1ccc(Cl)cn1 (centres unmarked) [Example I-12]	100%	100%	100%	
CC(NC(=O)c1cc(OC(F)(F)F)cc(C(C)(C)C#N)c1)c1nc2cccnc2n1-c1ccc(Cl)cn1 (centres unmarked) [Example I-14]		83%		pest or weed control at 1 µg/cm2, 100 g/ha [5]: 100%; mortality at 20 mg/m2 [6]: 80 to 100%; mortality at 20 mg/m2 [9]: 80 to 100%
C[C@H](NC(=O)c1cc(OC(F)(F)F)cc(OC(F)(F)F)c1)c1nc2cccnc2n1-c1ccc(C#N)cn1 [Example I-16]		100%	100%	pest or weed control at 1 µg/cm2, 100 g/ha [5]: 100%; mortality at 4 mg/m2 [6]: 80 to 100%; mortality at 20 mg/m2 [6]: 80 to 100%; mortality at 4 mg/m2 [9]: 80 to 100%; mortality at 20 mg/m2 [9]: 80 to 100%
Cc1ccc2nc(C(C)NC(=O)c3cc(Cl)cc(OC(F)(F)F)c3)n(-c3ccc(C#N)cn3)c2n1 (centres unmarked) [Example I-20]		100%		
Cc1ccc2nc(C(C)NC(=O)c3cc(OC(F)(F)F)cc(S(C)(=O)=O)c3)n(-c3ccc(C#N)cn3)c2n1 (centres unmarked) [Example I-23]		100%		
COC(=O)c1ccc(-n2c(C(C)NC(=O)c3cc(OC(F)(F)F)cc(S(C)(=O)=O)c3)nc3cccnc32)nc1 (centres unmarked) [Example I-24]				mortality at 100 ppm [1]: 100%; mortality at 20 ppm [2]: 100%; mortality at 4 mg/m2 [6]: 80 to 100%; mortality at 20 mg/m2 [6]: 80 to 100%; mortality at 4 mg/m2 [7]: 80 to 100%; mortality at 20 mg/m2 ([7]; surface concentration 20 mg/m^2, 30 minutes exposure): 80 to 100%
CNC(=O)c1ccc(-n2c(C(C)NC(=O)c3cc(OC(F)(F)F)cc(S(C)(=O)=O)c3)nc3cccnc32)nc1 (centres unmarked) [Example I-28]	100%			
CC(NC(=O)c1cc(OC(F)(F)F)cc(S(C)(=O)=O)c1)c1nc2cccnc2n1-c1ccc(C(=O)N(C)C)cn1 (centres unmarked) [Example I-29]	90%			
CC(NC(=O)c1cc(C(F)(F)F)cc(C(F)(F)F)c1)c1nc2cccnc2n1-c1ccc(C(N)=O)cn1 (centres unmarked) [Example I-30]	100%			
C[C@H](NC(=O)c1cc(C(F)(F)F)cc(C(F)(F)F)c1)c1nc2ncccc2n1-c1ccc(C#N)cn1 [Example I-32]		100%		
CC(NC(=O)c1cc(OC(F)(F)F)cc(C2CC2)c1)c1nc2ncccc2n1-c1ccc(Cl)cn1 (centres unmarked) [Example I-33, N-[1-[I-(5-chloro-2-pyridyl)imidazo[4,5-b]pyridin-2-yl]ethyl]-3-cyclopropyl-5-(trifluoromethoxy) benzamide]		100%		mortality at 4 mg/m2 [7]: 80 to 100%
CC(NC(=O)c1cc(Cl)cc(OC(F)(F)F)c1)c1nc2cc(F)cnc2n1-c1ccc(C#N)cn1 (centres unmarked) [Example I-34]		100%	100%	
CC(NC(=O)c1cc(OC(F)(F)F)cc(S(=O)(=O)C(F)F)c1)c1nc2cccnc2n1-c1ccc(C#N)cn1 (centres unmarked) [Example I-36]		100%	100%	
CC(NC(=O)c1cc(OC(F)(F)F)cc(C(C)(F)F)c1)c1nc2cccnc2n1-c1ccc(C#N)cn1 (centres unmarked) [Example I-37]		100%	100%	
CC(NC(=O)c1cc(C(F)(F)F)cc(C(F)(F)F)c1)c1nc2cnccc2n1-c1ccc(Cl)cn1 (centres unmarked) [Example I-39, N-[1-[1-(5-chloro-2-pyridyl)imidazo[4,5-c]pyridin-2-yl]ethyl]-3,5-bis(trifluoromethyl)benzamide]	100%		100%	
CC(NC(=O)c1cc(Br)cc(OC(F)(F)F)c1)c1nc2cccnc2n1-c1ccc(C#N)cn1 (centres unmarked) [Example I-41]		100%	100%	
CC(NC(=O)c1cc(C#N)cc(OC(F)(F)F)c1)c1nc2cccnc2n1-c1ccc(C#N)cn1 (centres unmarked) [Example I-42]		100%		
CC(NC(=O)c1cc(C(F)F)cc(C(F)F)c1)c1nc2cccnc2n1-c1ccc(C#N)cn1 (centres unmarked) [Example I-44]		83%		
